This is an account of results in US20250269093A1, “METHODS OF ENHANCING ANTIMICROBIAL EFFICACY OF LOCAL ANESTHETICS” (Chinook Contract Research Inc., priority 2023, published 2025).

Counter-ions that a name gives are not always drawn. Like-named read-outs stand apart in the source and are kept apart here.

The subject of assay [1] is S. epidermidis ATCC 35984. Put plainly: Broth microdilution assay (MIC). Format: cell-based, Staphylococcus epidermidis. The note with it: for MIC: broth microdilution, 16-24 hours at 37° C.; for MIC +1 mg/mL LD: titrated in a constant concentration of 1 mg/mL lidocaine base. The protocol:
(§1) Broth Microdilution Assay: A stock solution of each test article was serially diluted in a 96-well plate for a final volume of 0.1 mL per well. […] Turbidity was assessed after 16-24 hours at 37° C. (100 rpm).
(§2) Incubated at 37° C. at 200 rpm for approximately 2 hours to fully dissolve the powder. Filter sterilized.
(§3) Prepared a 2× stock of lidocaine HCl by dissolving 500 mg per 10 mL OSB (=50 mg/mL). Filter sterilized.
(§4) Serially diluted (2-fold series) the contents of rows B to G: Removed 100 μL from row B to row C and mixed by pipetting up and down at least 3 times. Discarded the tips.
(§5) For bacteria: Mixed 10 μL O/N with 990 μL OSB for ˜10^7 CFU/mL, then mixed 100 μL of the ˜10^7 CFU/mL culture with 9.90 mL BGM for ˜10^5 CFU/mL. • b. For yeast: Mixed 100 μL O/N with 9.90 mL BGM for ˜10^5 CFU/mL.
(§6) Immediately poured the ˜10^5 CFU/mL inoculum into a sterile reagent reservoir and used a multichannel pipettor to aliquot 100 μL into each well of the 96-well plates, excluding row H. Mixed by pipetting up and down at least 3 times. Added uninoculated BGM to row H.
(§7) Sealed the plates in sandwich bags and incubated at 37±1° C. for 16-24 hours (100 rpm).
(§8) Visually scored for growth, which appeared as turbidity or as a deposit of cells at the bottom of a well.
(§9) Determined the MIC (minimum inhibitory concentration) for each organism. The MIC was defined as the minimum concentration that inhibited growth of the organism.
(§10) MIC determination from Broth Microdilution: MIC results were determined following the overnight incubation of the broth microdilution plates. Ensured that the SC wells were free of growth and that the GC wells were positive for growth. To determine the minimum inhibitory concentration (MIC) values, checked for turbidity in the wells of the challenge plate and scored. The MIC was defined as the minimum concentration that inhibited visible growth of the organism.
A general note: Broth dilution looks for growth in wells or tubes with falling amounts of substance.

In the next assay the test system is C. albicans ATCC 10231. Kind of assay: Broth microdilution assay (MIC). Type of assay: cell-based, Candida albicans. The note with it: for MIC: broth microdilution, 16-24 hours at 37° C.; for MIC +1 mg/mL LD: titrated in a constant concentration of 1 mg/mL lidocaine base. The protocol: as §1, §2, §3, §4, §5, §6, §7, §8, §9, §10
Assay [2] concerns E. coli ATCC 25922. Kind of assay: Broth microdilution assay (MIC). Format: cell-based, Escherichia coli. The note with it: for MIC: broth microdilution, 16-24 hours at 37° C.; for MIC +1 mg/mL LD: titrated in a constant concentration of 1 mg/mL lidocaine base. Here is the method: as §1, §2, §3, §4, §5, §6, §7, §8, §9, §10
The test system of another assay is P. mirabilis ATCC 29906. Put plainly: Broth microdilution assay (MIC). Format: cell-based, Proteus mirabilis. The note with it: for MIC: broth microdilution, 16-24 hours at 37° C.; for MIC +1 mg/mL LD: titrated in a constant concentration of 1 mg/mL lidocaine base. The protocol:
as §1, §2, §3, §4, §5, §6, §7, §8, §9, §10

A further assay relates to P. aeruginosa ATCC 15442. Put plainly: Broth microdilution assay (MIC). Type of assay: cell-based, Pseudomonas aeruginosa. The note with it: for MIC: broth microdilution, 16-24 hours at 37° C.; for MIC +1 mg/mL LD: titrated in a constant concentration of 1 mg/mL lidocaine base. The protocol:
as §1, §2, §3, §4, §5, §6, §7, §8, §9, §10

The test system of assay [3] is all seven tested organisms. Put plainly: Broth microdilution assay (MIC), summary over the panel. Format: cell-based. The note with it: for MIC (plus lidocaine base): all seven organisms, constant concentration of 1 mg/mL lidocaine base. Here is the method:
as §1
Prepared a 2× stock solution of lidocaine by dissolving 20 mg of free-base lidocaine per 10 mL of OSB (=2 mg/mL). Incubated at 37° C. at 200 rpm for approximately 2 hours to fully dissolve the powder. Filter sterilized.
as §3
Prepared 2× stock (=8% v/v) of DMSO or NMP by mixing 800 μL of either with 9.2 mL of OSB or with OSB plus 2 mg/mL lidocaine base.
Aliquoted 200 μL of the 2× stock of LD-HCl, LD base, DMSO, NMP, DMSO+LD base, or NMP+LD base into wells B1-2, B3-4, B5-6, B7-8, B9-10, or B11-12, respectively.
as §4, §5, §6, §7, §8, §9
MIC determination from Broth Microdilution: MIC results were determined following the overnight incubation of the broth microdilution plates. […] To determine the minimum inhibitory concentration (MIC) values, checked for turbidity in the wells of the challenge plate and scored. […]

Assay [4] concerns S. aureus ATCC 29213. Kind of assay: Broth microdilution assay (MIC). Type of assay: cell-based, Staphylococcus aureus. The note with it: for MIC: broth microdilution, 16-24 hours at 37° C.; for MIC +1 mg/mL LD: titrated in a constant concentration of 1 mg/mL lidocaine base. Here is the method:
as §1, §2, §3, §4, §5, §6, §7, §8, §9, §10

For another assay, the system named is E. faecalis ATCC 51575. Kind of assay: Broth microdilution assay (MIC). Type of assay: cell-based, Enterococcus faecalis. The note with it: for MIC: broth microdilution, 16-24 hours at 37° C.; for MIC +1 mg/mL LD: titrated in a constant concentration of 1 mg/mL lidocaine base. The protocol:
as §1, §2, §3, §4, §5, §6, §7, §8, §9, §10

For assay [5], the system named is E. coli ATCC 25922. The note with it: cited from earlier work.
Assay [6] concerns S. aureus ATCC 29213. The note with it: cited from earlier work.
A further assay deals with P. aeruginosa ATCC 27853. The note with it: cited from earlier work.

For the compound `C[S+](C)[O-]` [DMSO, Dimethyl Sulfoxide], the MIC (in [1]; against C. albicans ATCC 10231; against E. coli ATCC 25922 [2]; against P. mirabilis ATCC 29906; against P. aeruginosa ATCC 15442; against S. aureus ATCC 29213 [4]) was above 4.00 % v/v each time. The MIC against E. faecalis ATCC 51575 was above 4.00 % v/v. In addition, the “MIC +1 mg/mL LD” value (in [1]; in the assay on C. albicans ATCC 10231; against E. coli ATCC 25922 [2]; against P. mirabilis ATCC 29906; against P. aeruginosa ATCC 15442; in the assay on S. aureus ATCC 29213 [4]) was above 4.00 % v/v in each case. In addition, the “MIC +1 mg/mL LD” value with E. faecalis ATCC 51575 is above 4.00 % v/v. In assay [3], the “MIC (plus lidocaine base)” value is above 4 % v/v.
With `CCN(CC)CC(=O)Nc1c(C)cccc1C` [LD-B, Free base lidocaine], the MIC (in assay [1]; in the assay on C. albicans ATCC 10231; in the assay on E. coli ATCC 25922 [2]; with P. mirabilis ATCC 29906; against P. aeruginosa ATCC 15442; in the assay with S. aureus ATCC 29213 [4]) was above 1.00 mg/mL in each case. Besides, the MIC in the assay on E. faecalis ATCC 51575 is given as above 1.00 mg/mL.
Take `CN1CCCC1=O` [NMP, n-methyl-2-pyrrolidone]: the MIC came to 4.00 % v/v in assay [1]; 4.00 % v/v in the assay on C. albicans ATCC 10231; 4.00 % v/v in the assay on E. coli ATCC 25922 [2]; 4.00 % v/v in the assay on P. mirabilis ATCC 29906; 4.00 % v/v against P. aeruginosa ATCC 15442; 4 % v/v in assay [3] (for all seven tested organisms, maximum challenge concentration 4% v/v). In addition, the MIC against S. aureus ATCC 29213 [4] and against E. faecalis ATCC 51575 was 4.00 % v/v in each case. For the same compound, the “MIC +1 mg/mL LD” value (in [1]; in the assay with C. albicans ATCC 10231; against E. coli ATCC 25922 [2]; with P. mirabilis ATCC 29906; in the assay with P. aeruginosa ATCC 15442; with S. aureus ATCC 29213 [4]) was 4.00 % v/v in each case. Besides, the “MIC +1 mg/mL LD” value against E. faecalis ATCC 51575 was 4.00 % v/v. The “MIC (plus lidocaine base)” value in assay [3] stood at 4 % v/v.
In the case of `CCN(CC)CC(=O)Nc1c(C)cccc1C` [LD-HCl, Lidocaine hydrochloride], the “MIC (published literature)” value is 5.00 mg/mL in the assay on E. coli ATCC 25922 [5], 20.0 mg/mL in the assay on S. aureus ATCC 29213 [6] and above 20.0 mg/mL in the assay with P. aeruginosa ATCC 27853. The MIC was 25 mg/mL in [1] (Staphylococcus epidermidis, ATCC35984, read-out: MIC); 12.5 mg/mL in the assay with C. albicans ATCC 10231 (Candida albicans, ATCC10231, read-out: MIC); 6.25 mg/mL in the assay on E. coli ATCC 25922 [2] (Escherichia coli, ATCC25922, read-out: MIC); 12.5 mg/mL in the assay on P. mirabilis ATCC 29906 (Proteus mirabilis, ATCC29906, read-out: MIC); 25 mg/mL with P. aeruginosa ATCC 15442 (Pseudomonas aeruginosa, ATCC15442, read-out: MIC); 12.5 mg/mL in the assay with S. aureus ATCC 29213 [4] (Staphylococcus aureus, ATCC29213, read-out: MIC). In addition, in the assay on E. faecalis ATCC 51575 (Enterococcus faecalis, ATCC51575, read-out: MIC), the MIC is 25 mg/mL.
